From PubChem BioAssay AID1963874 (Molecular Pharmacology Branch, DTP, NCI, 2024)

System: 253994-281-T-J1-PDC KRAS-mutant spheroids with HUVEC/MSC, viability
Experiment: Anticancer human tumor 253994-281-T-J1-PDC patient-derived colorectal carcinoma cell line growth inhibition [KRAS2]
Details: for viability, T/C: stronger effect = lower value
Summary of the method: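 Combination screen of spheroid viability in tumor-cell co-cultures with endothelial (HUVEC) and mesenchymal stem cell stroma. Each agent was tested in half-log dilutions, topping at clinical Cmax or at 10 microM without a known Cmax.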

[1] = curve of first compound, second compound 0.0316 µM
[2] = curve of first compound, second compound 0.1 µM
[3] = curve of first compound, second compound 0.316 µM
[4] = curve of first compound, second compound 1 µM
[5] = curve of first compound, second compound 3.16 µM
[6] = second compound 0.0316 µM, first compound 0.0316 µM
[7] = second compound 0.0316 µM, first compound 0.1 µM
[8] = second compound 0.0316 µM, first compound 0.316 µM
[9] = second compound 0.0316 µM, first compound 1 µM
[10] = second compound 0.0316 µM, first compound 3.16 µM
[11] = second compound 0.0316 µM, first compound 10 µM
[12] = second compound 0.1 µM, first compound 0.0316 µM
[13] = second compound 0.1 µM, first compound 0.1 µM
[14] = second compound 0.1 µM, first compound 0.316 µM
[15] = second compound 0.1 µM, first compound 1 µM
[16] = second compound 0.1 µM, first compound 3.16 µM
[17] = second compound 0.1 µM, first compound 10 µM
[18] = second compound 0.316 µM, first compound 0.0316 µM
[19] = second compound 0.316 µM, first compound 0.1 µM
[20] = second compound 0.316 µM, first compound 0.316 µM
[21] = second compound 0.316 µM, first compound 1 µM
[22] = second compound 0.316 µM, first compound 3.16 µM
[23] = second compound 0.316 µM, first compound 10 µM
[24] = second compound 1 µM, first compound 0.0316 µM
[25] = second compound 1 µM, first compound 0.1 µM
[26] = second compound 1 µM, first compound 0.316 µM
[27] = second compound 1 µM, first compound 1 µM
[28] = second compound 1 µM, first compound 3.16 µM
[29] = second compound 1 µM, first compound 10 µM
[30] = second compound 3.16 µM, first compound 0.0316 µM
[31] = second compound 3.16 µM, first compound 0.1 µM
[32] = second compound 3.16 µM, first compound 0.316 µM
[33] = second compound 3.16 µM, first compound 1 µM
[34] = second compound 3.16 µM, first compound 3.16 µM
[35] = second compound 3.16 µM, first compound 10 µM
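Note: spheroids exposed to agents for seven days before readout.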
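Throughout, for viability, T/C: percent of DMSO vehicle control viability.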

Structure (SMILES)	IC50 [1] [µM]	IC50 [2] [µM]	IC50 [3] [µM]	IC50 [4] [µM]	IC50 [5] [µM]	viability, T/C [6] [%]	viability, T/C [7] [%]	viability, T/C [8] [%]	viability, T/C [9] [%]	viability, T/C [10] [%]	viability, T/C [11] [%]	viability, T/C [12] [%]	viability, T/C [13] [%]	viability, T/C [14] [%]	viability, T/C [15] [%]	viability, T/C [16] [%]	viability, T/C [17] [%]	viability, T/C [18] [%]	viability, T/C [19] [%]	viability, T/C [20] [%]	further results
CCNC(=O)CC1N=C(c2ccc(Cl)cc2)c2cc(OC)ccc2-n2c(C)nnc21 (configuration not stated)	–	–	–	–	–	–	–	–	–	–	–	–	–	–	–	–	–	–	–	–	viability, T/C (compound 0.0316 µM): 105% [middle of 5 runs]; viability, T/C (compound 0.1 µM): 103% [middle of 5 runs]; viability, T/C (compound 0.316 µM): 95.6% [middle of 5 runs]; viability, T/C (compound 1 µM): 96.3% [middle of 5 runs]; viability, T/C (compound 3.16 µM): 97.5% [middle of 5 runs]; viability, T/C (compound 10 µM): 85.7% [middle of 5 runs]; IC50 (curve of compound): > 10 µM
CCNC(=O)CC1N=C(c2ccc(Cl)cc2)c2cc(OC)ccc2-n2c(C)nnc21 (configuration not stated) + C=CC(=O)N1CCN(c2nc(OCC3CCCN3C)nc3c2CCN(c2cccc4cccc(C)c24)C3)CC1CC#N	> 10	> 10	> 10	> 10	0.865	101	99.7	88.3	97	107	85.9	92.2	110	96.9	107	97.9	86.5	107	104	106	viability, T/C [21]: 91.4%; viability, T/C [22]: 92.8%; viability, T/C [23]: 90.7%; viability, T/C [24]: 98.4%; viability, T/C [25]: 108%; viability, T/C [26]: 95.8%; viability, T/C [27]: 91%; viability, T/C [28]: 93%; viability, T/C [29]: 85%; viability, T/C [30]: 84%; viability, T/C [31]: 96.2%; viability, T/C [32]: 83.2%; viability, T/C [33]: 25.9%; viability, T/C [34]: 65.9%; viability, T/C [35]: 43.8%
COC(=O)c1ccc2c(C(=Nc3ccc(N(C)C(=O)CN4CCN(C)CC4)cc3)c3ccccc3)c(O)[nH]c2c1 + C=CC(=O)N1CCN(c2nc(OCC3CCCN3C)nc3c2CCN(c2cccc4cccc(C)c24)C3)CC1CC#N	4.96	4.29	3.34	2.31	< 0.0316	101	112	98.7	96.4	76.3	9.63	94.2	88.3	86.7	75.5	66.9	13.4	109	85.9	80.4	viability, T/C [21]: 72.5%; viability, T/C [22]: 59.4%; viability, T/C [23]: 15.7%; viability, T/C [24]: 90.7%; viability, T/C [25]: 85.8%; viability, T/C [26]: 66.9%; viability, T/C [27]: 72.7%; viability, T/C [28]: 44%; viability, T/C [29]: 0.21%; viability, T/C [30]: 5.16%; viability, T/C [31]: 10.4%; viability, T/C [32]: 18.4%; viability, T/C [33]: 9.87%; viability, T/C [34]: 0.17%; viability, T/C [35]: 0.22%
